Source: the NIST ThermoML archive (doi:10.1021/acs.jced.8b00310)
± gives the expanded uncertainty stated by the source.

Test: molar heat capacity at constant pressure
Conditions: Gas, Flow calorimetry

**Q.** Which “molar heat capacity at constant pressure” value (303.15 K, 1500 kPa) does the source give for `FC(F)C(F)(F)F` [pentafluoroethane] here?
**A.** 129.62 ± 4.8 J/K/mol

**Q.** What about the “molar heat capacity at constant pressure” value (307.15 K, 1500 kPa) of the same compound?
**A.** 123.62 ± 1.7 J/K/mol

**Q.** And the “molar heat capacity at constant pressure” value (311.15 K, 1500 kPa)?
**A.** 121.1 ± 3.6 J/K/mol

**Q.** And the “molar heat capacity at constant pressure” value (313.15 K, 1500 kPa)?
**A.** 121.58 ± 2.4 J/K/mol

**Q.** And the “molar heat capacity at constant pressure” value (314.15 K, 2000 kPa)?
**A.** 147.63 ± 6 J/K/mol

**Q.** What about the “molar heat capacity at constant pressure” value (315.15 K, 2000 kPa) of the same compound?
**A.** 145.71 ± 3.6 J/K/mol

**Q.** And the “molar heat capacity at constant pressure” value (316.15 K, 2000 kPa)?
**A.** 145.35 ± 3.6 J/K/mol

**Q.** And the “molar heat capacity at constant pressure” value (317.15 K, 2000 kPa)?
**A.** 144.27 ± 3.6 J/K/mol

**Q.** What about the “molar heat capacity at constant pressure” value (318.15 K, 2000 kPa) of the same compound?
**A.** 143.43 ± 6 J/K/mol

**Q.** What about the “molar heat capacity at constant pressure” value (319.15 K, 2000 kPa) of the same compound?
**A.** 140.18 ± 3.6 J/K/mol

**Q.** And the “molar heat capacity at constant pressure” value (319.15 K, 2200 kPa)?
**A.** 158.55 ± 3.6 J/K/mol

**Q.** What about the “molar heat capacity at constant pressure” value (320.15 K, 2000 kPa) of the same compound?
**A.** 138.38 ± 6 J/K/mol

**Q.** What about the “molar heat capacity at constant pressure” value (320.15 K, 2200 kPa) of the same compound?
**A.** 159.03 ± 3.6 J/K/mol

**Q.** What about the “molar heat capacity at constant pressure” value (321.15 K, 2000 kPa) of the same compound?
**A.** 139.7 ± 4.8 J/K/mol

**Q.** What about the “molar heat capacity at constant pressure” value (321.15 K, 2200 kPa) of the same compound?
**A.** 156.99 ± 2.4 J/K/mol

**Q.** And the “molar heat capacity at constant pressure” value (322.15 K, 2000 kPa)?
**A.** 135.62 ± 3.6 J/K/mol

**Q.** What about the “molar heat capacity at constant pressure” value (323.15 K, 2200 kPa) of the same compound?
**A.** 153.75 ± 6 J/K/mol

**Q.** And the “molar heat capacity at constant pressure” value (323.15 K, 2400 kPa)?
**A.** 173.91 ± 7.2 J/K/mol

**Q.** And the “molar heat capacity at constant pressure” value (324.15 K, 2400 kPa)?
**A.** 168.03 ± 5.3 J/K/mol

**Q.** And the “molar heat capacity at constant pressure” value (325.15 K, 2400 kPa)?
**A.** 161.31 ± 4.8 J/K/mol

**Q.** What about the “molar heat capacity at constant pressure” value (326.15 K, 2400 kPa) of the same compound?
**A.** 159.03 ± 7.2 J/K/mol

**Q.** And the “molar heat capacity at constant pressure” value (327.15 K, 2400 kPa)?
**A.** 157.47 ± 7.2 J/K/mol

**Q.** And the “molar heat capacity at constant pressure” value (343.15 K, 500 kPa)?
**A.** 103.22 ± 3.6 J/K/mol

**Q.** What about the “molar heat capacity at constant pressure” value (343.15 K, 650 kPa) of the same compound?
**A.** 105.62 ± 3.6 J/K/mol

**Q.** What about the “molar heat capacity at constant pressure” value (343.15 K, 1000 kPa) of the same compound?
**A.** 108.26 ± 2.4 J/K/mol

**Q.** What about the “molar heat capacity at constant pressure” value (343.15 K, 1500 kPa) of the same compound?
**A.** 115.7 ± 2.4 J/K/mol

**Q.** What about the “molar heat capacity at constant pressure” value (343.15 K, 2000 kPa) of the same compound?
**A.** 123.14 ± 2.3 J/K/mol

**Q.** And the “molar heat capacity at constant pressure” value (343.15 K, 2200 kPa)?
**A.** 128.3 ± 2.4 J/K/mol

**Q.** What about the “molar heat capacity at constant pressure” value (343.15 K, 2400 kPa) of the same compound?
**A.** 134.42 ± 2.3 J/K/mol
